Five compounds from US4847302A, “Use of certain compounds in livestock food as growth promotants for better feed utilization and improved carcass composition” (Merck & Co., Inc., priority 1988, dated 1989) can be followed below.

Where two headings read alike, the source gives them in different places.

The nature of assay [1]: In vivo testing in rats: growth, feed conversion and carcass composition. Also on record: species or system rat (male Charles River CD). The following applies: in diet, dose equivalent to 20 ppm clenbuterol (clenbuterol: 10). The source says:
Eighty intact, male Charles River CD rats, 75-90 g, were housed and maintained on rat chow and water ad libitum. After four days acclimation ten rats per group were randomized by weight to treatment and pen. Compounds to be tested were premixed and added to ground rat chow using doses equivalent to 20 ppm of clenbuterol on a molecular weight basis. It had previously been determined 10 ppm of clenbuterol was the minimum dose needed to give maximum improvements in gain and feed conversion. Therefore, the results of any compound tested should cause responses similar to clenbuterol if the compound has half or more the activity of clenbuterol.

The test system of assay [2] is Isolated Ovine Adipocytes. Description: Stimulation of lipolysis (glycerol production) in isolated ovine adipocytes. It counts as cell-based, sheep. To be noted: for activation at 0.01 µM / activation at 0.05 µM / activation at 0.25 µM: Ovis aries, Adipocyte, 2 h, read-out: percent increase compared to control, glycerol production. As for the experimental part: (§1) Fat was collected from freshly killed animals as follows: epididymal and perirenal fat from 150 to 200 g male rates; perirenal fat from 20 to 25 kg whether lambs, and perirenal and omental fat from 35 to 50 kg gilts. Immediately after collection, fat was placed in a siliconized beaker (all glassware was siliconized) containing Krebs-Ringer bicarbonate solution (KRB; pH 7.4) at 37° C. Fat was transferred to a clean beaker and finely chopped with scissors. Chopped fat was then used as such (whole adipose preparation) or treated with collagenase (isolated adipocytes).
(§2) Chopped fat was placed in a shaker containing 70 ml cell dispersion medium (CDM; 5 mM glucose, 0.1% collagenase, 4% bovine serum albumin (BSA), in KRB) and incubated at 37° C. for 1 hour with gentle shaking. Fat was then filtered to remove clumps and washed 4 times with washing medium (WM; 2.5 mM glucose, 1% BSA, in KRB) and 1 time with final suspension medium (FSM; 2.5 mM glucose, 2% essentially fatty acid free BSA, in KRB). Isolated adipocytes were then resuspended in the required amount of FSM (1 ml/flask, 3 flasks/treatment).
(§3) Whole adipose tissue from the rat (0.3 ml) or isolated adipocytes from sheep or swine (1 ml) were placed in plastic scintillation vials containing FSM (1.7 or 1 ml, respectively) and test compounds, and incubated at 37° C. for 2 hours. […] Isoproterenol, at the same concentrations, was used as a positive control. After incubation, media was removed and assayed for glycerol by a fluorometric modification of the method of Wieland (1974. Glycerol UV-method. pp. 1404. In: Bergmeyer (Ed.) Methods of Enzymatic Analysis. Verlag Chemie Weinham, Academic Press, New York).

Assay [3] deals with Isolated Swine Adipocytes. In words: Stimulation of lipolysis (glycerol production) in isolated swine adipocytes. The following applies: Sus scrofa, Adipocyte, 2 h, read-out: percent increase compared to control, glycerol production. The format is cell-based. The method, then: as §1, §2, §3
Assay [4] deals with Isolated Chicken Hepatocytes. Description: Inhibition of lipogenesis (14C acetate incorporation) in isolated chicken hepatocytes. It counts as cell-based. To be noted: Gallus gallus, Hepatocyte, 2 h, read-out: percent change compared to control, 14C acetate incorporation in fatty acids. The method, then: Determination of anti-lipogenic activity in hepatocytes
Hepatocytes were isolated from chicken liver using the procedure for adipocytes and incubated for 2 hours at 37° C. in the presence of ^14 C acetate and test compounds. […] Isoproterenol, at the same concentrations, was used as a positive control. After incubation, 8 ml Doles reagent (isopropanol:hexane:H2 SO4, 40:10:1) was added and incubation vials were shaken at room temperature for 30 minutes. Vial contents were poured into 50 ml screw-cap tubes. Vials were then rinsed with 6 ml hexane which was poured into the appropriate 50 ml tube. Tubes were shaken by hand, 10 ml H2 O was added, and tubes were shaken again. After phase separation, 2 ml of the upper (hexane) phase was removed to scintillation vials. Hexane was evaporated by a gentle air flow and the remaining lipids were resuspended in 10 ml Scinti Verse II. ^14 C was counted in a Packard liquid scintillation counter. Data are reported as CPM of ^14 C acetate incorporated into total lipids.

Another assay concerns Rat Adipose Tissue. Description: Stimulation of lipolysis (glycerol production) in chopped rat adipose tissue. The format is cell-based. The following applies: Rattus norvegicus, 2 h, read-out: percent increase compared to control, glycerol production. As for the experimental part: as §1
Whole adipose tissue from the rat (0.3 ml) or isolated adipocytes from sheep or swine (1 ml) were placed in plastic scintillation vials containing FSM (1.7 or 1 ml, respectively) and test compounds, and incubated at 37° C. for 2 hours. […] Isoproterenol, at the same concentrations, was used as a positive control. After incubation, media was removed and assayed for glycerol by a fluorometric modification of the method of Wieland (1974. Glycerol UV-method. pp. 1404. In: Bergmeyer (Ed.) Methods of Enzymatic Analysis. Verlag Chemie Weinham, Academic Press, New York). […]

Consider `COc1ccc(CNc2cc(C(O)CNC(C)(C)C)ccc2O)cc1` (stereo not shown) [III], for which the Gain in assay [1] (Test 1, control 7.3) is given as 8.0 g/day. Besides, in assay [1] (Test 1, control 18.6), the “Feed Intake” value is 19.4 g/day. Besides, the Weight in assay [1] (Test 1, control 191.8) came to 201.7 g. For the same compound, in assay [1] (Test 1), the “Carcass Composition % of Change over Control, Fat” value was -7.0% and the “Carcass Composition % of Change over Control, Protein” value stood at 6.1%. In assay [2] (Test 1), the activation at 0.01 µM was 465%. For the same compound, the activation at 0.05 µM in assay [2] (Test 1, 0.05 μM) came out at 845%. In addition, in assay [3] (Test 1), the activation at 0.01 µM was 20%, the activation at 0.05 µM stood at 33% and the activation at 0.25 µM came to 53%. For the same compound, in assay [4] (Test 1), the inhibition at 0.01 µM came to 9.5%, the inhibition at 0.05 µM is 35.5% and the inhibition at 0.25 µM is 54.4%. Further, in the assay on Rat Adipose Tissue (Test 1), the activation at 0.01 µM worked out at 194%, the activation at 0.05 µM amounted to 203% and the activation at 0.25 µM amounted to 334%.
With `CC(C)(C)NCC(O)c1cc(Br)no1` (stereo not shown) [II], the Gain in assay [1] (Test 2, control 7.5) was 8.4 g/day. The “Feed Intake” value in assay [1] (Test 2, control 19.3) stood at 21.1 g/day. In addition, the Weight in assay [1] (Test 2, control 202.3) is 215.9 g. Further, in assay [1] (Test 2), the “Carcass Composition % of Change over Control, Fat” value is recorded as -9.3% and the “Carcass Composition % of Change over Control, Protein” value worked out at 3.8%. Also, in assay [2] (Test 1), the activation at 0.25 µM was 325%. Also, in assay [2] (Test 1, 0.05 μM), the “percent increase compared to control, glycerol production” value is “inactive”. In assay [3] (Test 1), the activation at 0.01 µM was found to be 27%, the activation at 0.05 µM was -7% and the activation at 0.25 µM was -40%. In assay [4] (Test 1), the inhibition at 0.01 µM was 0%, the inhibition at 0.05 µM is 0% and the inhibition at 0.25 µM came to 7.9%. Also, in the assay with Rat Adipose Tissue (Test 1), the activation at 0.01 µM was found to be 51%, the activation at 0.05 µM came to 15% and the activation at 0.25 µM is 35%.
Consider `CC(C)NCC(O)c1ccc(O)c(O)c1` (stereo not shown) [Isoproterenol], for which the activation at 0.01 µM in assay [2] (Test 1) came out at 670%; in assay [2] (Test 2), 600%; in assay [3] (Test 1) it was 40%; in assay [3] (Test 2), 175%; in the assay on Rat Adipose Tissue (Test 1), 45%; with Rat Adipose Tissue (Test 2) it was 49%. In addition, the activation at 0.05 µM was determined as 140% in assay [3] (Test 1), 196% in assay [3] (Test 2), 173% in the assay on Rat Adipose Tissue (Test 1) and 154% in the assay with Rat Adipose Tissue (Test 2). Moreover, the activation at 0.25 µM in assay [3] (Test 1) stood at 660%; in assay [3] (Test 2), 820%; in the assay on Rat Adipose Tissue (Test 1), 290%; with Rat Adipose Tissue (Test 2) it was 216%. The results for the inhibition at 0.01 µM in assay [4] (Test 1) and in assay [4] (Test 2) were 29.1% and 21%, respectively. In addition, the values for the inhibition at 0.05 µM in assay [4] (Test 1) and in assay [4] (Test 2) were 48.6% and 15%, respectively. For the same compound, the inhibition at 0.25 µM in assay [4] (Test 1) is 70.3%; in assay [4] (Test 2) it was 49%.
As for `Cn1c(=O)c2c(ncn2CCCNCC(O)c2cc(O)cc(O)c2)n(C)c1=O` (stereo not shown) [VI, Reproterol], the Gain in assay [1] (Test 2, control 7.5) worked out at 8.3 g/day. Moreover, the “Feed Intake” value in assay [1] (Test 2, control 19.3) is 21.2 g/day. The Weight in assay [1] (Test 2, control 202.3) is listed as 213.4 g. In addition, in assay [1] (Test 2), the “Carcass Composition % of Change over Control, Fat” value is 2.5%. Further, the “Carcass Composition % of Change over Control, Protein” value in assay [1] (Test 2) is 0.5%. The activation at 0.05 µM in assay [2] (Test 1, 0.05 μM) was 130%; in assay [2] (Test 2, 0.05 μM) it was 129%; in assay [3] (Test 1), -7%; in assay [3] (Test 2), 21%; in the assay on Rat Adipose Tissue (Test 1), 86%; with Rat Adipose Tissue (Test 2), 16%. The activation at 0.25 µM was 465% in assay [2] (Test 1); 700% in assay [2] (Test 2); 0% in assay [3] (Test 1); 3% in assay [3] (Test 2); 86% in the assay with Rat Adipose Tissue (Test 1); 13% in the assay with Rat Adipose Tissue (Test 2). Further, the activation at 0.01 µM in assay [2] (Test 2) was -14%; in assay [3] (Test 1) it was 20%; in assay [3] (Test 2), 8%; with Rat Adipose Tissue (Test 1), 63%; with Rat Adipose Tissue (Test 2), 13%. The inhibition at 0.01 µM in assay [4] (Test 1) is 0%; in assay [4] (Test 2), -3%. For the same compound, the inhibition at 0.05 µM in assay [4] (Test 1) worked out at 0%; in assay [4] (Test 2) it was 12%. For the same compound, the inhibition at 0.25 µM in assay [4] (Test 1) amounted to 8.6%; in assay [4] (Test 2), 25%.
Take `CC(C)(C)NCC(O)c1ccc(O)c(CO)n1` (stereo not shown) [VII, Pirbuterol]: the Gain in assay [1] (Test 1, control 7.3) is 8.0 g/day. Besides, in assay [1] (Test 1, control 18.6), the “Feed Intake” value was found to be 19.8 g/day. Besides, the Weight in assay [1] (Test 1, control 191.8) is 200.9 g. Further, in assay [1] (Test 1), the “Carcass Composition % of Change over Control, Fat” value is given as -8.7% and the “Carcass Composition % of Change over Control, Protein” value is recorded as 3.6%.
